In patent US10202378B2, “Therapeutic compounds and uses thereof” (GENENTECH, INC., priority 2015, dated 2019):

Legend:
[1] = biological target: TAF1-BD2 (Homo sapiens, UniProt P21675); assay: TAF1-BD2 TR-FRET Binding Assay; conditions: read-out: TAF1-BD2 HTRF IC50
[2] = biological target: TAF1-BD1 (Homo sapiens, UniProt P21675); assay: TAF1-BD1 TR-FRET Binding Assay; conditions: read-out: TAF1-BD1 HTRF IC50

IC50 [1] [nM] | IC50 [2] [nM] | Compound
130 | 1300 | CC(=O)c1c(C)[nH]c2c(=O)n(C)cc(C#CC(C)(C)O)c12 [Example 199a, 3-acetyl-4-(3-hydroxy-3-methyl-but-1-ynyl)-2,6-dimethyl-1H-pyrrolo[2,3-c]pyridin-7-one]
31.1 | 308 | Cc1[nH]c2c(=O)n(C)cc(C#CC(C)(C)O)c2c1C(=O)OC(C)(C)C [Example 133, tert-butyl 4-(3-hydroxy-3-methyl-but-1-ynyl)-2,6-dimethyl-7-oxo-1H-pyrrolo[2,3-c]pyridine-3-carboxylate]
62 | 253 | Cc1[nH]c2c(=O)n(C)cc(C#CC(C)(O)C(C)C)c2c1C(=O)OCC(C)C (centres unmarked) [Example 128, isobutyl 4-(3-hydroxy-3,4-dimethyl-pent-1-ynyl)-2,6-dimethyl-7-oxo-1H-pyrrolo[2,3-c]pyridine-3-carboxylate]
53.5 | 285 | Cc1[nH]c2c(=O)n(C)cc(C#CC(C)(O)C3CC3)c2c1-c1nnco1 (centres unmarked) [Example 182, 4-(3-cyclopropyl-3-hydroxy-but-1-ynyl)-2,6-dimethyl-3-(1,3,4-oxadiazol-2-yl)-1H-pyrrolo[2,3-c]pyridin-7-one]
35.1 | 221 | CCC(C)(C)OC(=O)c1c(C)[nH]c2c(=O)n(C)cc(C#CC(C)(C)O)c12 [Example 151, 1,1-dimethylpropyl 4-(3-hydroxy-3-methyl-but-1-ynyl)-2,6-dimethyl-7-oxo-1H-pyrrolo[2,3-c]pyridine-3-carboxylate]
29.4 | 360 | Cc1[nH]c2c(=O)n(C)cc(C#CC(C)(C)O)c2c1-c1nnc(C(C)C)o1 [Example 195, 4-(3-hydroxy-3-methyl-but-1-ynyl)-3-(5-isopropyl-1,3,4-oxadiazol-2-yl)-2,6-dimethyl-1H-pyrrolo[2,3-c]pyridin-7-one]
47.7 | 232 | CCC(C)(C)OC(=O)c1c(C)[nH]c2c(=O)n(C)cc(C#C[C@@](C)(O)c3cc(C)on3)c12 [Example 139, 1,1-dimethylpropyl 4-[(3R)-3-hydroxy-3-(5-methylisoxazol-3-yl)but-1-ynyl]-2,6-dimethyl-7-oxo-1H-pyrrolo[2,3-c]pyridine-3-carboxylate]
307 | 1120 | Cc1[nH]c2c(=O)n(C)cc(C#CC(C)(O)C3CC3)c2c1C1=NC(C(C)C)CO1 (centres unmarked) [Example 203, 4-(3-cyclopropyl-3-hydroxy-but-1-ynyl)-3-(4-isopropyl-4,5-dihydrooxazol-2-yl)-2,6-dimethyl-1H-pyrrolo[2,3-c]pyridin-7-one]
38.3 | 241 | Cc1[nH]c2c(=O)n(C)cc(C#CC(C)(O)C3CC3)c2c1-c1nnc(C(C)CN2CCOCC2)o1 (centres unmarked) [Example 176, 4-(3-cyclopropyl-3-hydroxy-but-1-ynyl)-2,6-dimethyl-3-[5-(1-methyl-2-morpholino-ethyl)-1,3,4-oxadiazol-2-yl]-1H-pyrrolo[2,3-c]pyridin-7-one]
153 | 517 | Cc1cc([C@](C)(O)C#Cc2cn(C)c(=O)c3[nH]c(C)c(-c4nnc(C)o4)c23)no1 [Example 193, 4-[(3R)-3-hydroxy-3-(5-methylisoxazol-3-yl)but-1-ynyl]-2,6-dimethyl-3-(5-methyl-1,3,4-oxadiazol-2-yl)-1H-pyrrolo[2,3-c]pyridin-7-one]
71.2 | 233 | Cc1cc([C@](C)(O)C#Cc2cn(C)c(=O)c3[nH]c(C)c(C(=O)OC(C)C)c23)no1 [Example 157, isopropyl 4-[(3R)-3-hydroxy-3-(5-methylisoxazol-3-yl)but-1-ynyl]-2,6-dimethyl-7-oxo-1H-pyrrolo[2,3-c]pyridine-3-carboxylate]
27.3 | 283 | Cc1[nH]c2c(=O)n(C)cc(C#CC(C)(C)O)c2c1C(=O)OC(C)(C)CC#N [Example 163, (2-cyano-1,1-dimethyl-ethyl) 4-(3-hydroxy-3-methyl-but-1-ynyl)-2,6-dimethyl-7-oxo-1H-pyrrolo[2,3-c]pyridine-3-carboxylate]
32.4 | 130 | Cc1[nH]c2c(=O)n(C)cc(C#CC(C)(O)c3ccccc3)c2c1C(=O)OCC(C)C (centres unmarked) [Example 160, isobutyl 4-(3-hydroxy-3-phenyl-but-1-ynyl)-2,6-dimethyl-7-oxo-1H-pyrrolo[2,3-c]pyridine-3-carboxylate]

Further lines, the compound ahead of its results:

Compound | IC50 [1] [nM] | IC50 [2] [nM]
C=CCCn1cc(C#CC(C)(C)O)c2c(C(=O)OCC)c(C)[nH]c2c1=O [Example 49, ethyl 6-but-3-enyl-4-(3-hydroxy-3-methyl-but-1-ynyl)-2-methyl-7-oxo-1H-pyrrolo[2,3-c]pyridine-3-carboxylate] | 116 | 2850
Cc1cc([C@](C)(O)C#Cc2cn(C)c(=O)c3[nH]cc(C(=O)OCC(C)C)c23)no1 [Example 54, isobutyl 4-[(3R)-3-hydroxy-3-(5-methylisoxazol-3-yl)but-1-ynyl]-6-methyl-7-oxo-1H-pyrrolo[2,3-c]pyridine-3-carboxylate] | 122 | 179
CCNC(=O)c1c(C)[nH]c2c(=O)n(C)cc(C#CC(C)(C)O)c12 [Example 168, N-ethyl-4-(3-hydroxy-3-methyl-but-1-ynyl)-2,6-dimethyl-7-oxo-1H-pyrrolo[2,3-c]pyridine-3-carboxamide] | 1630 | 5790
Cc1[nH]c2c(=O)n(C)cc(C#CC(C)(C)O)c2c1C(=O)O [Example 200, 4-(3-hydroxy-3-methyl-but-1-ynyl)-2,6-dimethyl-7-oxo-1H-pyrrolo[2,3-c]pyridine-3-carboxylic acid] | 13700 | 20000
CCOC(=O)c1c(C)[nH]c2c(=O)n(C)cc(C#CC3(O)COC3)c12 [Example 30, ethyl 4-[2-(3-hydroxyoxetan-3-yl)ethynyl]-2,6-dimethyl-7-oxo-1H-pyrrolo[2,3-c]pyridine-3-carboxylate] | 87.3 | 634
CCOC(=O)c1c(C)[nH]c2c(=O)n(C)cc(C#CC(O)(c3cccc(-c4cccnc4)c3)C(F)(F)F)c12 (centres unmarked) [Example 100, ethyl 2,6-dimethyl-7-oxo-4-[4,4,4-trifluoro-3-hydroxy-3-[3-(3-pyridyl)phenyl]but-1-ynyl]-1H-pyrrolo[2,3-c]pyridine-3-carboxylate] | 27.3 | 189
C=CCCn1cc(C#C[C@](C)(O)c2cc(C)on2)c2c(C(=O)OCC)c(C)[nH]c2c1=O [Example 71, ethyl 6-but-3-enyl-4-[(3S)-3-hydroxy-3-(5-methylisoxazol-3-yl)but-1-ynyl]-2-methyl-7-oxo-1H-pyrrolo[2,3-c]pyridine-3-carboxylate] | 190 | 2510
C=CCCn1cc(C#C[C@@](C)(O)c2cc(C)on2)c2c(C(=O)OCC(C)C)c(C)[nH]c2c1=O [Example 125, isobutyl 6-but-3-enyl-4-[(3R)-3-hydroxy-3-(5-methylisoxazol-3-yl)but-1-ynyl]-2-methyl-7-oxo-1H-pyrrolo[2,3-c]pyridine-3-carboxylate] | 169 | 3050
C=CCCn1cc(C#CC(C)(O)C2CC2)c2c(C(=O)OCC(C)C)c(C)[nH]c2c1=O (centres unmarked) [Example 122, isobutyl 6-but-3-enyl-4-(3-cyclopropyl-3-hydroxy-but-1-ynyl)-2-methyl-7-oxo-1H-pyrrolo[2,3-c]pyridine-3-carboxylate] | 116 | 1710
CCOC(=O)c1c(C)[nH]c2c(=O)n(C)cc(C#CC3(O)CCc4cccnc43)c12 (single isomer, unassigned) [Example 99a, ethyl 4-[2-(7-hydroxy-5,6-dihydrocyclopenta[b]pyridin-7-yl)ethynyl]-2,6-dimethyl-7-oxo-1H-pyrrolo[2,3-c]pyridine-3-carboxylate] | 1180 | 2930
CCOC(=O)c1c(C)[nH]c2c(=O)n(C)cc(C#Cc3ccccc3)c12 [Example 55, ethyl 2,6-dimethyl-7-oxo-4-(2-phenylethynyl)-1H-pyrrolo[2,3-c]pyridine-3-carboxylate] | 74 | 457
Cc1cccc(COC(=O)c2c(C)[nH]c3c(=O)n(C)cc(C#CC(C)(C)O)c23)c1 [Example 118, m-tolylmethyl 4-(3-hydroxy-3-methyl-but-1-ynyl)-2,6-dimethyl-7-oxo-1H-pyrrolo[2,3-c]pyridine-3-carboxylate] | 38.9 | 167
Cc1[nH]c2c(=O)n(C)cc(C#CC(C)(C)O)c2c1C(=O)OCc1ccncc1 [Example 112, 4-pyridylmethyl 4-(3-hydroxy-3-methyl-but-1-ynyl)-2,6-dimethyl-7-oxo-1H-pyrrolo[2,3-c]pyridine-3-carboxylate] | 610 | 4620
CCOC(=O)c1c(C)[nH]c2c(=O)n(C)cc(C#CC(O)(c3ccccc3)C(F)(F)F)c12 (centres unmarked) [Example 73, ethyl 2,6-dimethyl-7-oxo-4-(4,4,4-trifluoro-3-hydroxy-3-phenyl-but-1-ynyl)-1H-pyrrolo[2,3-c]pyridine-3-carboxylate] | 69.5 | 287
CCOC(=O)c1c(C)[nH]c2c(=O)n(C)cc(C#CC3(O)CCN(CC)CC3)c12 [Example 8, ethyl 4-[2-(1-ethyl-4-hydroxy-4-piperidyl)ethynyl]-2,6-dimethyl-7-oxo-1H-pyrrolo[2,3-c]pyridine-3-carboxylate] | 425 | 7850
CCOC(=O)c1c(C)[nH]c2c(=O)n(C)cc(C#C[C@@](C)(O)c3nnc(C)o3)c12 [Example 64, ethyl 4-[(3R)-3-hydroxy-3-(5-methyl-1,3,4-oxadiazol-2-yl)but-1-ynyl]-2,6-dimethyl-7-oxo-1H-pyrrolo[2,3-c]pyridine-3-carboxylate] | 160 | 502
CCOC(=O)c1c(C)[nH]c2c(=O)n(C)cc(C#CC(O)(C3CC3)C(F)(F)F)c12 (centres unmarked) [Example 45, ethyl 4-(3-cyclopropyl-4,4,4-trifluoro-3-hydroxy-but-1-ynyl)-2,6-dimethyl-7-oxo-1H-pyrrolo[2,3-c]pyridine-3-carboxylate] | 74.7 | 271
CCOC(=O)c1c(C)[nH]c2c(=O)n(C)cc(C#Cc3ccsc3)c12 [Example 62, ethyl 2,6-dimethyl-7-oxo-4-[2-(3-thienyl)ethynyl]-1H-pyrrolo[2,3-c]pyridine-3-carboxylate] | 57.9 | 402
